# Measurements taken from patent US20250188123A1, “PROTEASE INHIBITORS” (Regents of the University of Minnesota, priority 2022, published 2025).
# Columns and labels:
# Human recombinant Casp9 = target: T1, Human recombinant Casp9 (Homo sapiens, UniProt P55211); assay: In vitro caspase panel assay, Casp9; format: biochemical; conditions: Casp2 over Casp9, caspase panel
# T1 construct: purchased BioVision (Milpitas/CA, USA)
# T1 sequence (P55211 1-416): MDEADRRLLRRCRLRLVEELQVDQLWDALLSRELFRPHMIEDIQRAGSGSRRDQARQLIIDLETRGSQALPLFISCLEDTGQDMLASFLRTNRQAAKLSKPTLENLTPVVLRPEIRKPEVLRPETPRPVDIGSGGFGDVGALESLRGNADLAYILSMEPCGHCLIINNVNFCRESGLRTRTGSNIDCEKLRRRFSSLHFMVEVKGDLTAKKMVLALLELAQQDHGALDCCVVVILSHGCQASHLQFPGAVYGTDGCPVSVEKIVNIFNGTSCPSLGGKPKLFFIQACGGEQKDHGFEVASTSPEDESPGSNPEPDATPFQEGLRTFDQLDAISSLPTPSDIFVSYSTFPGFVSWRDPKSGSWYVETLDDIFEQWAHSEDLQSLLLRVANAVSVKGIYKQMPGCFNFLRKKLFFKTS
# Source text: (§1) Human recombinant Casp1, 6, 7, and 9 were purchased from BioVision (Milpitas/CA, USA). AFC fluorogenic substrates and control peptides (AcYVAD-CHO, AcVDVAD-CHO, AcDEVD-CHO, AcVEID-CHO, and AcLEHD-CHO) were purchased from Bachem (Torrance/CA, USA). The pET23b vector encoding human caspase-3 was a gift of Dr. Michelle Arkin at University of California, San Francisco. Expression and purification of Casp3 was guided by previously described protocols (Denault J-B, Salvesen G S., Current Protocols in Protein Science, 2002, 30(1), 21.13. 1-21.13. 15). Briefly, the plasmid was transformed into E. coli Rosetta 2 pLyss DE3 cells that were cultured at 1 L scale in shake flasks. […] The typical yield for the expression, isolation, and purification was approximately 3 mg/L. The DNA encoding human caspase-2 (hCASP2, amino acids 170-452, free of the N-terminal caspase activation and recruitment domain) open reading frame (ORF) was amplified via polymerase chain reaction (PCR) from full-length hCASP2 cDNA (Origene, Rockville, MD; Cat #SC321316) using following primers: forward, 5′-[…]-3′; reverse, 5′-[…]-3′. […] Proteins were stored in 1× phosphate-buffered saline (pH 7.4) at 10 mg/mL (concentration determined using a BCA assay (Thermo Fisher Scientific)), −80° C. until further use. […]
# Human recombinant Casp7 = target: T2, Human recombinant Casp7 (Homo sapiens, UniProt P55210); assay: In vitro caspase panel assay, Casp7; format: biochemical; conditions: Casp2 over Casp7, caspase panel
# T2 construct: purchased BioVision (Milpitas/CA, USA)
# T2 sequence (P55210 1-303): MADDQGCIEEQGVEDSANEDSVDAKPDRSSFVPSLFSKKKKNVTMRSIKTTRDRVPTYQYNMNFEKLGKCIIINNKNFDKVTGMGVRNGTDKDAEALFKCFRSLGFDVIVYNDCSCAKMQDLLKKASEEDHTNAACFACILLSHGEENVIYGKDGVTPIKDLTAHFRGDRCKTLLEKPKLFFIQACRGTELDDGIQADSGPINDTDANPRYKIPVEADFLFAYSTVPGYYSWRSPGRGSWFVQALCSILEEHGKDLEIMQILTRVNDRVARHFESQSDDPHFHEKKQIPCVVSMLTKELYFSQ
# Source text: as §1
compound,measurement,setting,value
"Cc1ccc2c(c1)CCN(C(=O)[C@@H](NC(=O)[C@H](CCCC(=O)O)NC(=O)C1Cc3ccccc3N1)C(C)C)[C@@H]2C(=O)N[C@H](C#N)CC(=O)O (stereo partly drawn) [Compound 1, (8)-6-(((S)-1-((8)-1-(((S)-2-carboxy-1-cyanoethyl)carbamoyl)-6-methyl-3,4-dihydroisoquinolin-2(1H)-yl)-3-methyl-1-oxobutan-2-yl)amino)-5-((S)-indoline-2-carboxamido)-6-oxohexanoic acid]",selective versus Casp9,Human recombinant Casp9,> 2000 fold
same,selective versus Casp7,Human recombinant Casp7,> 2000 fold
